Source: patent US20100130585A1, “METHODS AND COMPOSITIONS FOR INVESTIGATION AND TREATMENT OF CANCER USING A G-PROTEIN COUPLED EICOSANOID RECEPTOR” (priority 2005, published 2010)
Entries after “also recorded” stand apart in the source; their conditions may differ.

How the values were obtained:
5-LOX = test: Production of 5-oxoETE in PC3 cells measured by LC/MS; type: cell-based, human; conditions: 10 micromolar, two hours at 37 degree C, control cells 11 picograms per ml
Method: We also measured the production of 5-oxoETE in PC3 prostate cancer cells by liquid chromatography/mass spectrometry “(LC/MS”) to assess whether prostate cancer cells constitutively produce 5-oxoETE as a survival factor. […] PC3 prostate cancer cells (2 million per plate) were plated in 6 ml RPMI medium in serum-free medium for 24 hours. On the next day cells were treated with 10 micromolar MK591 (a specific 5-LOX inhibitor) for two hours at 37 degree C., or cells were left untreated. The media were collected, eicosanoids extracted, and measured by LC/MS.

PC3 cells = test: Killing of PC3 cells by 5-LOX inhibitor; type: cell-based, human; conditions: 10 micromolar
prostate cancer cells = conditions: exogenous metabolite, previous work [7, 8, 17]; cited from earlier work

Row | SMILES | eicosanoids (5-oxoETE) in serum-free culture medium (5-LOX) | killing of PC3 cells (PC3 cells) | prevention of apoptosis triggered by 5-LOX inhibition (prostate cancer cells)
1 | CC(C)(C)Sc1c(CC(C)(C)C(=O)O)n(Cc2ccc(Cl)cc2)c2ccc(OCc3ccc4ccccc4n3)cc12 [MK591] | 0 picograms per ml | kills PC3 cells | –
2 | CCCCC/C=C\C/C=C\C/C=C\C=C\[C@@H](O)CCCC(=O)O [5-HETE, 5(S)-hydroxyeicosatetraenoic acid] | – | – | prevented
3 | CCCCC/C=C\C/C=C\C/C=C\C=C\C(=O)CCCC(=O)O [5-oxoETE, 5-oxoeicosatetraenoic acid] | – | – | prevented; also recorded: more effective
